From PubChem BioAssay (NCI)
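Grown in 96-well plates, cells were treated for 48 hours with each compound at five concentrations. Insufficient inhibition: endpoint recorded as highest concentration tested. At the TGI there is no net growth.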

Columns and labels:
Assay in all cases: inhibition of tumour cell growth, NCI panel, 48 h
U251 CNS = test system: U251 CNS
UACC-257 melanoma = test system: UACC-257 melanoma
CCRF-CEM leukemia = test system: CCRF-CEM leukemia
T-47D breast = test system: T-47D breast
SF-268 CNS = test system: SF-268 CNS
TK-10 renal = test system: TK-10 renal
HT29 colon = test system: HT29 colon
RXF 393 renal = test system: RXF 393 renal
CAKI-1 renal = test system: CAKI-1 renal
A549 NSCLC = test system: A549 NSCLC
MDA-N = test system: MDA-N
PC-3 prostate = test system: PC-3 prostate
SNB-19 CNS = test system: SNB-19 CNS
SK-MEL-28 melanoma = test system: SK-MEL-28 melanoma
HCT-116 colon = test system: HCT-116 colon
NCI-H460 lung = test system: NCI-H460 lung
OVCAR-5 ovarian = test system: OVCAR-5 ovarian
LOX IMVI melanoma = test system: LOX IMVI melanoma
A498 renal = test system: A498 renal
M14 melanoma = test system: M14 melanoma
SF-295 CNS = test system: SF-295 CNS
SW-620 colon = test system: SW-620 colon
SK-MEL-2 melanoma = test system: SK-MEL-2 melanoma
RPMI-8226 leukemia = test system: RPMI-8226 leukemia
SF-539 CNS = test system: SF-539 CNS
OVCAR-3 ovarian = test system: OVCAR-3 ovarian
OVCAR-4 ovarian = test system: OVCAR-4 ovarian
DU-145 prostate = test system: DU-145 prostate
786-0 renal = test system: 786-0 renal
COLO 205 colon = test system: COLO 205 colon
OVCAR-8 ovarian = test system: OVCAR-8 ovarian
SNB-75 CNS = test system: SNB-75 CNS
MOLT-4 leukemia = test system: MOLT-4 leukemia
MDA-MB-435 = test system: MDA-MB-435
NCI-H522 lung = test system: NCI-H522 lung
UACC-62 melanoma = test system: UACC-62 melanoma
SK-OV-3 ovarian = test system: SK-OV-3 ovarian
MALME-3M melanoma = test system: MALME-3M melanoma
EKVX NSCLC = test system: EKVX NSCLC
SN12C renal = test system: SN12C renal
MDA-MB-231 breast = test system: MDA-MB-231 breast
HOP-92 NSCLC = test system: HOP-92 NSCLC
MCF7 breast = test system: MCF7 breast
NCI-H23 lung = test system: NCI-H23 lung
NCI-H226 lung = test system: NCI-H226 lung
HOP-62 NSCLC = test system: HOP-62 NSCLC
HCC-2998 colon = test system: HCC-2998 colon
IGROV1 ovarian = test system: IGROV1 ovarian
SK-MEL-5 melanoma = test system: SK-MEL-5 melanoma
HS 578T breast = test system: HS 578T breast
ACHN renal = test system: ACHN renal
BT-549 breast = test system: BT-549 breast
NCI/ADR-RES ovarian = test system: NCI/ADR-RES ovarian
KM12 colon = test system: KM12 colon
HCT-15 colon = test system: HCT-15 colon
SR leukemia = test system: SR leukemia
HL-60(TB) leukemia = test system: HL-60(TB) leukemia
UO-31 renal = test system: UO-31 renal
K-562 leukemia = test system: K-562 leukemia

SMILES: CC(C)/C(Cl)=N\OC(=O)NNc1ccccc1
- TGI (U251 CNS): > 100 µM
- TGI (UACC-257 melanoma): > 100 µM
- TGI (CCRF-CEM leukemia): > 46.7 µM
- TGI (T-47D breast): 40.1 µM
- TGI (SF-268 CNS): > 100 µM
- TGI (TK-10 renal): > 100 µM
- TGI (HT29 colon): > 100 µM
- TGI (RXF 393 renal): > 100 µM
- TGI (CAKI-1 renal): 28.2 µM
- TGI (A549 NSCLC): > 100 µM
- TGI (MDA-N): > 100 µM
- TGI (PC-3 prostate): > 100 µM
- TGI (SNB-19 CNS): > 100 µM
- TGI (SK-MEL-28 melanoma): > 100 µM
- TGI (HCT-116 colon): > 100 µM
- TGI (NCI-H460 lung): > 100 µM
- TGI (OVCAR-5 ovarian): > 100 µM
- TGI (LOX IMVI melanoma): 36.9 µM
- TGI (A498 renal): > 100 µM
- TGI (M14 melanoma): > 56.3 µM
- TGI (SF-295 CNS): > 100 µM
- TGI (SW-620 colon): > 44.1 µM
- TGI (SK-MEL-2 melanoma): > 100 µM
- TGI (RPMI-8226 leukemia): 1.34 µM
- TGI (SF-539 CNS): > 100 µM
- TGI (OVCAR-3 ovarian): > 100 µM
- TGI (OVCAR-4 ovarian): > 100 µM
- TGI (DU-145 prostate): > 100 µM
- TGI (786-0 renal): > 100 µM
- TGI (COLO 205 colon): 1.63 µM
- TGI (OVCAR-8 ovarian): > 100 µM
- TGI (SNB-75 CNS): > 100 µM
- TGI (MOLT-4 leukemia): 17.7 µM
- TGI (MDA-MB-435): > 100 µM
- TGI (NCI-H522 lung): 28.7 µM
- TGI (UACC-62 melanoma): > 100 µM
- TGI (SK-OV-3 ovarian): > 100 µM
- TGI (MALME-3M melanoma): 38.3 µM
- TGI (EKVX NSCLC): 37.3 µM
- TGI (SN12C renal): > 74.7 µM
- TGI (MDA-MB-231 breast): > 94.2 µM
- TGI (HOP-92 NSCLC): 35.3 µM
- TGI (MCF7 breast): > 100 µM
- TGI (NCI-H23 lung): > 100 µM
- TGI (NCI-H226 lung): 99.7 µM
- TGI (HOP-62 NSCLC): > 100 µM
- TGI (HCC-2998 colon): > 100 µM
- TGI (IGROV1 ovarian): > 100 µM
- TGI (SK-MEL-5 melanoma): > 54 µM
- TGI (HS 578T breast): > 100 µM
- TGI (ACHN renal): 34.1 µM
- TGI (BT-549 breast): > 100 µM
- TGI (NCI/ADR-RES ovarian): > 100 µM
- TGI (KM12 colon): > 100 µM
- TGI (HCT-15 colon): > 53.7 µM

SMILES: CC(C)c1c(P(=O)(c2ccccc2)c2ccccc2)n(C)c2ccccc12
- TGI (U251 CNS): > 100 µM
- TGI (UACC-257 melanoma): > 100 µM
- TGI (CCRF-CEM leukemia): > 100 µM
- TGI (T-47D breast): > 100 µM
- TGI (SF-268 CNS): > 100 µM
- TGI (TK-10 renal): > 100 µM
- TGI (HT29 colon): > 100 µM
- TGI (SR leukemia): > 100 µM
- TGI (A549 NSCLC): > 100 µM
- TGI (HL-60(TB) leukemia): 96.9 µM
- TGI (MDA-N): > 100 µM
- TGI (PC-3 prostate): > 100 µM
- TGI (SNB-19 CNS): > 100 µM
- TGI (SK-MEL-28 melanoma): > 100 µM
- TGI (HCT-116 colon): > 100 µM
- TGI (NCI-H460 lung): > 100 µM
- TGI (OVCAR-5 ovarian): > 100 µM
- TGI (LOX IMVI melanoma): > 100 µM
- TGI (A498 renal): > 100 µM
- TGI (M14 melanoma): > 100 µM
- TGI (SF-295 CNS): > 100 µM
- TGI (SW-620 colon): > 100 µM
- TGI (SK-MEL-2 melanoma): > 100 µM
- TGI (RPMI-8226 leukemia): > 100 µM
- TGI (SF-539 CNS): > 100 µM
- TGI (OVCAR-3 ovarian): > 100 µM
- TGI (OVCAR-4 ovarian): > 100 µM
- TGI (UO-31 renal): > 100 µM
- TGI (DU-145 prostate): > 100 µM
- TGI (K-562 leukemia): > 100 µM
- TGI (786-0 renal): > 100 µM
- TGI (COLO 205 colon): > 100 µM
- TGI (OVCAR-8 ovarian): > 100 µM
- TGI (SNB-75 CNS): > 100 µM
- TGI (MOLT-4 leukemia): > 100 µM
- TGI (MDA-MB-435): > 100 µM
- TGI (NCI-H522 lung): > 100 µM
- TGI (MALME-3M melanoma): > 100 µM
- TGI (EKVX NSCLC): > 100 µM
- TGI (SN12C renal): > 100 µM
- TGI (MDA-MB-231 breast): > 100 µM
- TGI (HOP-92 NSCLC): > 100 µM
- TGI (MCF7 breast): > 100 µM
- TGI (NCI-H23 lung): > 100 µM
- TGI (NCI-H226 lung): > 100 µM
- TGI (HOP-62 NSCLC): > 100 µM
- TGI (HCC-2998 colon): > 100 µM
- TGI (HS 578T breast): > 100 µM
- TGI (ACHN renal): > 100 µM
- TGI (BT-549 breast): > 100 µM
- TGI (NCI/ADR-RES ovarian): > 100 µM
- TGI (KM12 colon): > 100 µM
- TGI (HCT-15 colon): > 100 µM

SMILES: N#Cc1c2c(c(Nc3ccc(F)cc3)n3c1nc1ccccc13)CCC2
- TGI (U251 CNS): 8.01 µM
- TGI (UACC-257 melanoma): 24.1 µM
- TGI (CCRF-CEM leukemia): 4.52 µM
- TGI (T-47D breast): 24 µM
- TGI (SF-268 CNS): 18.1 µM
- TGI (TK-10 renal): 6.51 µM
- TGI (HT29 colon): 3.61 µM
- TGI (RXF 393 renal): 7.9 µM
- TGI (CAKI-1 renal): 3.5 µM
- TGI (SR leukemia): > 100 µM
- TGI (A549 NSCLC): 22.5 µM
- TGI (HL-60(TB) leukemia): > 100 µM
- TGI (MDA-N): 9.75 µM
- TGI (PC-3 prostate): 19 µM
- TGI (SNB-19 CNS): 22.1 µM
- TGI (SK-MEL-28 melanoma): 23.7 µM
- TGI (HCT-116 colon): 3.45 µM
- TGI (NCI-H460 lung): 23 µM
- TGI (OVCAR-5 ovarian): 13.9 µM
- TGI (LOX IMVI melanoma): 5.37 µM
- TGI (A498 renal): 28.8 µM
- TGI (M14 melanoma): 18.4 µM
- TGI (SF-295 CNS): 18.7 µM
- TGI (SW-620 colon): 5.71 µM
- TGI (SK-MEL-2 melanoma): 40.6 µM
- TGI (RPMI-8226 leukemia): > 21.3 µM
- TGI (SF-539 CNS): 9.56 µM
- TGI (OVCAR-3 ovarian): 18.5 µM
- TGI (OVCAR-4 ovarian): 28.4 µM
- TGI (UO-31 renal): 7.75 µM
- TGI (DU-145 prostate): 13.9 µM
- TGI (K-562 leukemia): > 100 µM
- TGI (786-0 renal): 3.25 µM
- TGI (COLO 205 colon): 14.1 µM
- TGI (OVCAR-8 ovarian): 5.83 µM
- TGI (SNB-75 CNS): 16.7 µM
- TGI (MOLT-4 leukemia): > 100 µM
- TGI (MDA-MB-435): 11 µM
- TGI (NCI-H522 lung): 4.58 µM
- TGI (UACC-62 melanoma): 25.1 µM
- TGI (SK-OV-3 ovarian): 26.8 µM
- TGI (MALME-3M melanoma): 19.9 µM
- TGI (EKVX NSCLC): 26 µM
- TGI (SN12C renal): 4.59 µM
- TGI (MDA-MB-231 breast): 11.3 µM
- TGI (HOP-92 NSCLC): 20.5 µM
- TGI (MCF7 breast): 16 µM
- TGI (NCI-H23 lung): 17.6 µM
- TGI (NCI-H226 lung): 22.7 µM
- TGI (HOP-62 NSCLC): 11.2 µM
- TGI (HCC-2998 colon): 41.9 µM
- TGI (IGROV1 ovarian): 11.1 µM
- TGI (SK-MEL-5 melanoma): 8.52 µM
- TGI (ACHN renal): 5.8 µM
- TGI (BT-549 breast): 17.8 µM
- TGI (NCI/ADR-RES ovarian): 25 µM
- TGI (KM12 colon): 23.7 µM
- TGI (HCT-15 colon): 13.1 µM
